Assay results as given in the supplement of paper PMC10307832.

Experiments:
Test in all cases: relative viability (nuclei count vs DMSO), 5 days (fraction); higher = more cells survive
201T = test system: 201T
Summary of the method: (§1)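 Each reported value is a median over duplicate plates. It expresses relative viability: treated-well nuclei count divided by vehicle-well nuclei count. Lung cancer cell lines in 1536-well plates were dosed by pin tool a day after seeding, alone with one drug or with a fixed anchor-drug dose plus five library-drug doses (not always all listed) in √10 steps, and nuclei were counted after 5 days.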

ABC-1 = test system: ABC-1
Summary of the method: as §1

BEN = test system: BEN
Summary of the method: as §1

CAL-12T = test system: CAL-12T
Summary of the method: as §1

COR-L 105 = test system: COR-L 105
Summary of the method: as §1

EKVX = test system: EKVX
Summary of the method: as §1

HARA = test system: HARA
Summary of the method: as §1

HCC-366 = test system: HCC-366
Summary of the method: as §1

LK-2 = test system: LK-2
Summary of the method: as §1

LOU-NH91 = test system: LOU-NH91
Summary of the method: as §1

NCI-H1437 = test system: NCI-H1437
Summary of the method: as §1

NCI-H1666 = test system: NCI-H1666
Summary of the method: as §1

NCI-H2009 = test system: NCI-H2009
Summary of the method: as §1

NCI-H2170 = test system: NCI-H2170
Summary of the method: as §1

NCI-H3122 = test system: NCI-H3122
Summary of the method: as §1

NCI-H441 = test system: NCI-H441
Summary of the method: as §1

NCI-H460 = test system: NCI-H460
Summary of the method: as §1

NCI-H661 = test system: NCI-H661
Summary of the method: as §1

NCI-H727 = test system: NCI-H727
Summary of the method: as §1

PC-14 = test system: PC-14
Summary of the method: as §1

## Cc1sc2c(c1C)C(c1ccc(Cl)cc1)=N[C@@H](CC(=O)OC(C)(C)C)c1nnc(C)n1-2 [JQ1] + Cc1nc(NC(=O)N2CCC[C@H]2C(N)=O)sc1-c1ccnc(C(C)(C)C(F)(F)F)c1 [Alpelisib] (partner 2 µM)
201T; first compound 0.04 µM
  relative viability: 1.02
201T; first compound 0.1265 µM
  relative viability: 0.926
201T; first compound 0.4 µM
  relative viability: 0.939
201T; first compound 1.265 µM
  relative viability: 0.715
201T; first compound 4 µM
  relative viability: 0.567
ABC-1; first compound 0.04 µM
  relative viability: 1.07
ABC-1; first compound 0.1265 µM
  relative viability: 1.04
ABC-1; first compound 0.4 µM
  relative viability: 0.829
ABC-1; first compound 1.265 µM
  relative viability: 0.424
ABC-1; first compound 4 µM
  relative viability: 0.465
BEN; first compound 0.04 µM
  relative viability: 0.953
BEN; first compound 0.1265 µM
  relative viability: 0.918
BEN; first compound 0.4 µM
  relative viability: 0.594
BEN; first compound 1.265 µM
  relative viability: 0.332
BEN; first compound 4 µM
  relative viability: 0.273
CAL-12T; first compound 0.04 µM
  relative viability: 1.08
CAL-12T; first compound 0.1265 µM
  relative viability: 1.42
CAL-12T; first compound 0.4 µM
  relative viability: 0.919
CAL-12T; first compound 1.265 µM
  relative viability: 0.325
CAL-12T; first compound 4 µM
  relative viability: 0.328
COR-L 105; first compound 0.04 µM
  relative viability: 0.799
COR-L 105; first compound 0.1265 µM
  relative viability: 0.642
COR-L 105; first compound 0.4 µM
  relative viability: 0.421
COR-L 105; first compound 1.265 µM
  relative viability: 0.252
COR-L 105; first compound 4 µM
  relative viability: 0.255
EKVX; first compound 0.04 µM
  relative viability: 0.834
EKVX; first compound 0.1265 µM
  relative viability: 0.8
EKVX; first compound 0.4 µM
  relative viability: 0.688
EKVX; first compound 1.265 µM
  relative viability: 0.729
EKVX; first compound 4 µM
  relative viability: 0.664
HARA; first compound 0.04 µM
  relative viability: 0.915
HARA; first compound 0.1265 µM
  relative viability: 0.598
HARA; first compound 0.4 µM
  relative viability: 0.283
HARA; first compound 1.265 µM
  relative viability: 0.266
HARA; first compound 4 µM
  relative viability: 0.156
HCC-366; first compound 0.04 µM
  relative viability: 0.405
HCC-366; first compound 0.4 µM
  relative viability: 0.404
HCC-366; first compound 1.265 µM
  relative viability: 0.233
HCC-366; first compound 4 µM
  relative viability: 0.215
LK-2; first compound 0.04 µM
  relative viability: 1.05
LK-2; first compound 0.1265 µM
  relative viability: 1.06
LK-2; first compound 0.4 µM
  relative viability: 0.55
LK-2; first compound 1.265 µM
  relative viability: 0.237
LK-2; first compound 4 µM
  relative viability: 0.16
LOU-NH91; first compound 0.04 µM
  relative viability: 0.683
LOU-NH91; first compound 0.1265 µM
  relative viability: 0.664
LOU-NH91; first compound 0.4 µM
  relative viability: 0.458
LOU-NH91; first compound 1.265 µM
  relative viability: 0.491
LOU-NH91; first compound 4 µM
  relative viability: 0.473
NCI-H1437; first compound 0.04 µM
  relative viability: 0.871
NCI-H1437; first compound 0.1265 µM
  relative viability: 0.803
NCI-H1437; first compound 0.4 µM
  relative viability: 0.515
NCI-H1437; first compound 1.265 µM
  relative viability: 0.284
NCI-H1437; first compound 4 µM
  relative viability: 0.216
NCI-H1666; first compound 0.04 µM
  relative viability: 0.802
NCI-H1666; first compound 0.1265 µM
  relative viability: 1.04
NCI-H1666; first compound 0.4 µM
  relative viability: 0.696
NCI-H1666; first compound 1.265 µM
  relative viability: 0.507
NCI-H1666; first compound 4 µM
  relative viability: 0.444
NCI-H2009; first compound 0.04 µM
  relative viability: 1.09
NCI-H2009; first compound 0.1265 µM
  relative viability: 0.968
NCI-H2009; first compound 0.4 µM
  relative viability: 0.697
NCI-H2009; first compound 1.265 µM
  relative viability: 0.32
NCI-H2009; first compound 4 µM
  relative viability: 0.268
NCI-H2170; first compound 0.04 µM
  relative viability: 0.811
NCI-H2170; first compound 0.1265 µM
  relative viability: 0.801
NCI-H2170; first compound 0.4 µM
  relative viability: 0.689
NCI-H2170; first compound 1.265 µM
  relative viability: 0.403
NCI-H2170; first compound 4 µM
  relative viability: 0.34
NCI-H3122; first compound 0.04 µM
  relative viability: 0.833
NCI-H3122; first compound 0.1265 µM
  relative viability: 0.771
NCI-H3122; first compound 0.4 µM
  relative viability: 0.963
NCI-H3122; first compound 1.265 µM
  relative viability: 0.661
NCI-H3122; first compound 4 µM
  relative viability: 0.663
NCI-H441; first compound 0.04 µM
  relative viability: 0.772
NCI-H441; first compound 0.1265 µM
  relative viability: 0.958
NCI-H441; first compound 0.4 µM
  relative viability: 0.692
NCI-H441; first compound 1.265 µM
  relative viability: 0.294
NCI-H441; first compound 4 µM
  relative viability: 0.444
NCI-H460; first compound 0.04 µM
  relative viability: 0.47
NCI-H460; first compound 0.1265 µM
  relative viability: 0.344
NCI-H460; first compound 0.4 µM
  relative viability: 0.257
NCI-H460; first compound 1.265 µM
  relative viability: 0.0483
NCI-H460; first compound 4 µM
  relative viability: 0.0414
NCI-H661; first compound 0.04 µM
  relative viability: 0.524
NCI-H661; first compound 0.1265 µM
  relative viability: 0.529
NCI-H661; first compound 0.4 µM
  relative viability: 0.71
NCI-H661; first compound 1.265 µM
  relative viability: 0.549
NCI-H661; first compound 4 µM
  relative viability: 0.465
NCI-H727; first compound 0.04 µM
  relative viability: 0.525
NCI-H727; first compound 0.1265 µM
  relative viability: 0.668
NCI-H727; first compound 0.4 µM
  relative viability: 0.445
NCI-H727; first compound 1.265 µM
  relative viability: 0.231
NCI-H727; first compound 4 µM
  relative viability: 0.222
PC-14; first compound 0.04 µM
  relative viability: 0.974
PC-14; first compound 0.1265 µM
  relative viability: 0.921
PC-14; first compound 0.4 µM
  relative viability: 0.885
PC-14; first compound 1.265 µM
  relative viability: 0.59
PC-14; first compound 4 µM
  relative viability: 0.351
